≈ marks a conversion by molar mass, not a printed value. Read-outs that look alike come from different tables or passages of the source. One block for each compound: values may come before it. Peptide text beside a SMILES is read from it.
Experiments:
[1] = system: T. gondii tachyzoites, strain RH; format: cell-based, Toxoplasma gondii; settings: 72 h
Method: Using microliter plates, T. gondii tachyzoites, strain RH were co-incubated with fibroblasts (MCR5, Bio-Merieux) for 72 hrs in the presence and absence of test compounds T. gondii was quantified using an ELISA. The activities of the test compounds are as follows: […]

[2] = system: HIV; format: cell-based
Source text: The inhibitory effect of test compounds on the HIV-induced cytopathic effect on the MT4 T cell line as described by R. Pauwels in J. Virol. Methods, 1988, Vol. 20, pp 309-321 was used.

[3] = Antiinflammatory activity, adjuvent arthritis test (Pearson); format: in vivo; settings: oral, solutions in olive oil and tween 80
Method: The antiinflammatory activity of test compounds was determined by the adjuvent arthritis test described by Pearson, “Arthr. Rheum”, 1959, Vol. 2., 440. Test compounds were administered orally as solutions in olive oil and tween 80.

[4] = molecular target: recombinant human cyclophilin 18 (Homo sapiens, UniProt P62937); assay: Test for inhibition of cyclophilin (chymotrypsin-coupled hydrolysis of Succ-Ala-Phe-Pro-Phe-4-nitroanilide); format: biochemical; settings: recombinant human cyclophilin 18, 10 °C, HEPES buffer, 5 minutes preincubation, substrate 50 μM
Method: The test described by G. Fischer et al., Biomed. Biochim. Acta, Vol. 43, 1101-1111 (1984) was used. Specifically, 5 μL of a 1 μM solution of recombinant human cyclophilin 18 was dissolved, at 10,0±0.3° C. in 1250 μL HEPES buffer; α-chymotrypsin was added to give a final concentration of 30 μM. […] After 5 minutes preincubation, Succ-Ala-Phe-Pro-Phe-4-nitroanilide (SEQ ID No. 1) was added to give a final concentration of 50 μM. The hydrolysis of the substrate was measured spectrophotometrically at […].

[5] = molecular target: cyclophilin (Homo sapiens, UniProt P62937); assay: Test for cyclophilin binding (Fliri); settings: ratio to cyclosporin A
Source text: To measure the affinity and inhibition of test compounds for cyclophilin, the test described by H. Fliri in “Antibiotics and Antiviral compounds”, 1993, Verlag Chemie, K.Krohn, H. A. Kirst, and H. Maag, eds., p 229-240 was used.

Sequence of recombinant human cyclophilin 18 (P62937 whole entry): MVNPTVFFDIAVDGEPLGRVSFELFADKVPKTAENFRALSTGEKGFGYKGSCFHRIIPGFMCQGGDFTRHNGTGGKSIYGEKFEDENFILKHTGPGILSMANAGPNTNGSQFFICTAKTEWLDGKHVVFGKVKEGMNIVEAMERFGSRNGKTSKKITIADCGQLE
Sequence of cyclophilin (P62937 whole entry): as above

SMILES: C/C=C/C[C@@H](C)[C@@H](O)[C@H]1C(=O)N[C@@H](CC)C(=O)N(C)C(SCCN(C)C)C(=O)N(C)[C@@H](CC(C)C)C(=O)N[C@@H](C(C)C)C(=O)N(C)[C@@H](CC(C)C)C(=O)N[C@@H](C)C(=O)N[C@H](C)C(=O)N(C)[C@@H](CC(C)C)C(=O)N(C)[C@@H](CC(C)C)C(=O)N(C)[C@@H](C(C)C)C(=O)N1C (some centres unmarked) [Example 9, 3-(2-dimethylaminoethylthio)-cyclosporin]
Activity against T. gondii (IC50) [1]: 0.1 mg/L | IC50 ([2]; HIV-induced cytopathic effect on MT4 T cell line): 0.03 mg/L (≈ 0.023 µM)

SMILES: C/C=C/C[C@@H](C)[C@@H](O)[C@H]1C(=O)N[C@@H](CC)C(=O)N(C)C(OC)C(=O)N(C)[C@@H](CC(C)C)C(=O)N[C@@H](C(C)C)C(=O)N(C)[C@@H](CC(C)C)C(=O)N[C@@H](C)C(=O)N[C@H](C)C(=O)N(C)[C@@H](CC(C)C)C(=O)N(C)[C@@H](CC(C)C)C(=O)N(C)[C@@H](C(C)C)C(=O)N1C (some centres unmarked) [Example 14, 3-Methoxycyclosporin]
ED50, dose effective in reducing the joint swelling by 50% [3]: 10 mg/kg | Activity against T. gondii (IC50) [1]: 0.6 mg/L

IC50 [4]: 0.0102 ± 0.00221 µM
SMILES: C=CCO[C@@H]1C(=O)N(C)[C@@H](CC(C)C)C(=O)N[C@@H](C(C)C)C(=O)N(C)[C@@H](CC(C)C)C(=O)N[C@@H](C)C(=O)N[C@H](C)C(=O)N(C)[C@@H](CC(C)C)C(=O)N(C)[C@@H](CC(C)C)C(=O)N(C)[C@@H](C(C)C)C(=O)N(C)[C@@H]([C@H](O)[C@H](C)C/C=C/C)C(=O)N[C@@H](CC)C(=O)N1C [Example 18, [D-Sar-(allyloxy)^3]-cyclosporin] (HELM PEPTIDE1{[C/C=C/C[C@@H](C)[C@@H](O)[C@@H](C(=O)[*:2])N(C)[*:1]].[Abu].[C=CCO[C@H](C(=O)[*:2])N(C)[*:1]].[meL].V.[meL].A.[dA].[meL].[meL].[meV]}$PEPTIDE1,PEPTIDE1,1:R1-11:R2$$$V2.0)

Relative IC50, i.e. IC50 (cyclosporin A)/IC50 (test compound) [5]: 2
SMILES: C/C=C/C[C@@H](C)[C@@H](O)[C@H]1C(=O)N[C@@H](CC)C(=O)N(C)C(OCC)C(=O)N(C)[C@@H](CC(C)C)C(=O)N[C@@H](C(C)C)C(=O)N(C)[C@@H](CC(C)C)C(=O)N[C@@H](C)C(=O)N[C@H](C)C(=O)N(C)[C@@H](CC(C)C)C(=O)N(C)[C@@H](CC(C)C)C(=O)N(C)[C@@H](C(C)C)C(=O)N1C (some centres unmarked) [Example 15, 3-Ethoxycyclosporin] (HELM PEPTIDE1{[C/C=C/C[C@@H](C)[C@@H](O)[C@@H](C(=O)[*:2])N(C)[*:1]].[Abu].[CCOC(C(=O)[*:2])N(C)[*:1]].[meL].V.[meL].A.[dA].[meL].[meL].[meV]}$PEPTIDE1,PEPTIDE1,1:R1-11:R2$$$V2.0)
ED50, dose effective in reducing the joint swelling by 50% [3]: 15 mg/kg | Activity against T. gondii (IC50) [1]: 0.6 mg/L

SMILES: C/C=C/C[C@@H](C)[C@@H](O)[C@H]1C(=O)N[C@@H](CC)C(=O)N(C)C(OC(C)=O)C(=O)N(C)[C@@H](CC(C)C)C(=O)N[C@@H](C(C)C)C(=O)N(C)[C@@H](CC(C)C)C(=O)N[C@@H](C)C(=O)N[C@H](C)C(=O)N(C)[C@@H](CC(C)C)C(=O)N(C)[C@@H](CC(C)C)C(=O)N(C)[C@@H](C(C)C)C(=O)N1C (some centres unmarked) [Example 13, 3-Acetoxy-cyclosporin]
Activity against T. gondii (IC50) [1]: 1 mg/L | IC50 [2]: 0.15 mg/L (≈ 0.119 µM)

SMILES: C/C=C/C[C@@H](C)[C@@H](O)[C@H]1C(=O)N[C@@H](CC)C(=O)N(C)[C@H](OC(C)(C)C)C(=O)N(C)[C@@H](CC(C)C)C(=O)N[C@@H](C(C)C)C(=O)N(C)[C@@H](CC(C)C)C(=O)N[C@@H](C)C(=O)N[C@H](C)C(=O)N(C)[C@@H](CC(C)C)C(=O)N(C)[C@@H](CC(C)C)C(=O)N(C)[C@@H](C(C)C)C(=O)N1C [Example 17, [D-Sar-(tert.-butoxy)^3]-cyclosporin] (HELM PEPTIDE1{[C/C=C/C[C@@H](C)[C@@H](O)[C@@H](C(=O)[*:2])N(C)[*:1]].[Abu].[CN([C@H](OC(C)(C)C)C(=O)[*:2])[*:1]].[meL].V.[meL].A.[dA].[meL].[meL].[meV]}$PEPTIDE1,PEPTIDE1,1:R1-11:R2$$$V2.0)
IC50 [4]: 0.0189 ± 0.00103 µM

From patent US6583265B1, “Cyclosporins” (C-Chem AG, priority 1998, dated 2003)
